Results reported in ChEMBL document CHEMBL1153983, “Anti-HBV agents. Part 2: synthesis and in vitro anti-hepatitis B virus activities of alisol A derivatives” (Bioorg Med Chem Lett, 2009).

What was measured:
Hepatitis B virus [1] = assay: Antiviral activity against HBV assessed as inhibition of viral surface antigen secretion; type: functional, organism-based
Hepatitis B virus [2] = assay: Antiviral activity against HBV assessed as inhibition of viral early antigen secretion; type: functional, organism-based
[3] = Cytotoxicity against human HepG2(2.2.15) cells; type: cell-based
[4] = Selectivity index, ratio of CC50 for human HepG2(2.2.15) cells to IC50 for HBV surface antigen secretion; type: functional
[5] = Selectivity index, ratio of CC50 for human HepG2(2.2.15) cells to IC50 for HBV early antigen secretion; type: functional

Row | Structure (SMILES) | IC50 (Hepatitis B virus [1]) | IC50 (Hepatitis B virus [2]) | CC50 [3] | Ratio CC50/IC50 [4] | Ratio CC50/IC50 [5]
1 | C/C=C/C(=O)O[C@@H](C[C@@H](C)C1=C2C[C@H](OC(=O)/C=C/C)[C@H]3[C@@]4(C)CCC(=O)C(C)(C)[C@@H]4CC[C@]3(C)[C@@]2(C)CC1)[C@@H](OC(=O)/C=C/C)C(C)(C)O | > 850 µM | > 850 µM | > 850 µM |  | 
2 | C/C=C/C=C/C(=O)O[C@@H](C[C@@H](C)C1=C2C[C@H](OC(=O)/C=C/C=C/C)[C@H]3[C@@]4(C)CCC(=O)C(C)(C)[C@@H]4CC[C@]3(C)[C@@]2(C)CC1)[C@@H](OC(=O)/C=C/C=C/C)C(C)(C)O | > 900 µM | > 900 µM | > 900 µM |  | 
3 | CC(C)CC(=O)O[C@@H](C[C@@H](C)C1=C2C[C@H](OC(=O)CC(C)C)[C@H]3[C@@]4(C)CCC(=O)C(C)(C)[C@@H]4CC[C@]3(C)[C@@]2(C)CC1)[C@@H](OC(=O)CC(C)C)C(C)(C)O | > 1200 µM | > 1200 µM | > 1200 µM |  | 
4 | C[C@H](C[C@H](OC(=O)c1ccc(Cl)cc1Cl)[C@@H](OC(=O)c1ccc(Cl)cc1Cl)C(C)(C)O)C1=C2C[C@H](OC(=O)c3ccc(Cl)cc3Cl)[C@H]3[C@@]4(C)CCC(=O)C(C)(C)[C@@H]4CC[C@]3(C)[C@@]2(C)CC1 | > 1200 µM | > 1200 µM | > 1200 µM |  | 
5 | C=C(C)[C@H](OC(=O)COC(C)=O)[C@H](C[C@@H](C)C1=C2C[C@H](OC(=O)COC(C)=O)[C@H]3[C@@]4(C)CCC(=O)C(C)(C)[C@@H]4CC[C@]3(C)[C@@]2(C)CC1)OC(=O)COC(C)=O | < 32 µM | < 32 µM | < 30 µM |  | 
6 | C[C@H](C[C@H](OC(=O)/C=C/c1ccccc1Cl)[C@@H](OC(=O)/C=C/c1ccccc1Cl)C(C)(C)O)C1=C2C[C@H](OC(=O)/C=C/c3ccccc3Cl)[C@H]3[C@@]4(C)CCC(=O)C(C)(C)[C@@H]4CC[C@]3(C)[C@@]2(C)CC1 | 950 µM | > 1300 µM | > 1300 µM | >1.3 | 
7 | CCCCCCCC(=O)O[C@@H](C[C@@H](C)C1=C2C[C@H](OC(=O)CCCCCCC)[C@H]3[C@@]4(C)CCC(=O)C(C)(C)[C@@H]4CC[C@]3(C)[C@@]2(C)CC1)[C@@H](OC(=O)CCCCCCC)C(C)(C)O | > 600 µM | > 600 µM | > 600 µM |  | 
8 | C[C@H](C[C@H](OC(=O)c1ccc(Cl)cc1)[C@@H](OC(=O)c1ccc(Cl)cc1)C(C)(C)O)C1=C2C[C@H](OC(=O)c3ccc(Cl)cc3)[C@H]3[C@@]4(C)CCC(=O)C(C)(C)[C@@H]4CC[C@]3(C)[C@@]2(C)CC1 | > 900 µM | > 900 µM | > 900 µM |  | 
9 | C=C(C)[C@H](OC(=O)COC(C)=O)[C@H](C[C@@H](C)[C@]12CC[C@@]3(C)[C@@]1(C[C@H](OC(=O)COC(C)=O)[C@H]1[C@@]4(C)CCC(=O)C(C)(C)[C@@H]4CC[C@@]13C)O2)OC(=O)COC(C)=O | 51 µM | > 1600 µM | > 1600 µM | >31 | 
10 | COCC(=O)O[C@@H](C[C@@H](C)C1=C2C[C@H](OC(=O)COC)[C@H]3[C@@]4(C)CCC(=O)C(C)(C)[C@@H]4CC[C@]3(C)[C@@]2(C)CC1)[C@@H](OC(=O)COC)C(C)(C)O | 140 µM | > 400 µM | 400 µM | 2.9 | 
11 | COCC(=O)O[C@@H](C[C@@H](C)[C@]12CC[C@@]3(C)[C@@]1(C[C@H](OC(=O)COC)[C@H]1[C@@]4(C)CCC(=O)C(C)(C)[C@@H]4CC[C@@]13C)O2)[C@@H](OC(=O)COC)C(C)(C)OC(=O)COC | 110 µM | > 1600 µM | > 800 µM | >7.3 | 
12 | C[C@H](C[C@H](OC(=O)Cc1ccc([N+](=O)[O-])cc1)[C@@H](OC(=O)Cc1ccc([N+](=O)[O-])cc1)C(C)(C)O)C1=C2C[C@H](OC(=O)Cc3ccc([N+](=O)[O-])cc3)[C@H]3[C@@]4(C)CCC(=O)C(C)(C)[C@@H]4CC[C@]3(C)[C@@]2(C)CC1 | > 1000 µM | > 1000 µM | > 1000 µM |  | 
13 | C[C@H](C[C@H](OC(=O)COc1ccccc1)[C@@H](OC(=O)COc1ccccc1)C(C)(C)O)C1=C2C[C@H](OC(=O)COc3ccccc3)[C@H]3[C@@]4(C)CCC(=O)C(C)(C)[C@@H]4CC[C@]3(C)[C@@]2(C)CC1 | > 1300 µM | > 1300 µM | > 1300 µM |  | 
14 | CC(C)CCC(=O)O[C@@H](C[C@@H](C)C1=C2C[C@H](OC(=O)CCC(C)C)[C@H]3[C@@]4(C)CCC(=O)C(C)(C)[C@@H]4CC[C@]3(C)[C@@]2(C)CC1)[C@@H](OC(=O)CCC(C)C)C(C)(C)O | > 900 µM | > 900 µM | > 900 µM |  | 
15 | C=C(C)[C@H](OC(=O)COC)[C@H](C[C@@H](C)[C@]12CC[C@@]3(C)[C@@]1(C[C@H](OC(=O)COC)[C@H]1[C@@]4(C)CCC(=O)C(C)(C)[C@@H]4CC[C@@]13C)O2)OC(=O)COC | 44 µM | > 1300 µM | > 1300 µM | >29 | 
16 | C=C(C)[C@H](OC(=O)COCC)[C@H](C[C@@H](C)[C@]12CC[C@@]3(C)[C@@]1(C[C@H](OC(=O)COCC)[C@H]1[C@@]4(C)CCC(=O)C(C)(C)[C@@H]4CC[C@@]13C)O2)OC(=O)COCC | 20 µM | > 1800 µM | > 1800 µM | >90 | 
17 | C=C(C)[C@H](OC(=O)CC(C)C)[C@H](C[C@@H](C)C1=C2C[C@H](OC(=O)CC(C)C)[C@H]3[C@@]4(C)CCC(=O)C(C)(C)[C@@H]4CC[C@]3(C)[C@@]2(C)CC1)OC(=O)CC(C)C | > 1200 µM | > 1200 µM | > 1200 µM |  | 
18 | CCCCC(=O)O[C@@H](C[C@@H](C)C1=C2C[C@H](OC(=O)CCCC)[C@H]3[C@@]4(C)CCC(=O)C(C)(C)[C@@H]4CC[C@]3(C)[C@@]2(C)CC1)[C@@H](OC(=O)CCCC)C(C)(C)O | > 1300 µM | > 1300 µM | > 1300 µM |  | 
19 | C=C(C)[C@H](OC(=O)CCCC)[C@H](C[C@@H](C)C1=C2C[C@H](OC(=O)CCCC)[C@H]3[C@@]4(C)CCC(=O)C(C)(C)[C@@H]4CC[C@]3(C)[C@@]2(C)CC1)OC(=O)CCCC | > 920 µM | > 920 µM | > 920 µM |  | 
20 | C[C@H](C[C@H](OC(=O)CC(C)(C)C)[C@@H](OC(=O)CC(C)(C)C)C(C)(C)O)C1=C2C[C@H](OC(=O)CC(C)(C)C)[C@H]3[C@@]4(C)CCC(=O)C(C)(C)[C@@H]4CC[C@]3(C)[C@@]2(C)CC1 | > 1200 µM | > 1200 µM | > 1200 µM |  | 
21 | C[C@H](C[C@H](OC(=O)c1ccccc1I)[C@@H](OC(=O)c1ccccc1I)C(C)(C)O)C1=C2C[C@H](OC(=O)c3ccccc3I)[C@H]3[C@@]4(C)CCC(=O)C(C)(C)[C@@H]4CC[C@]3(C)[C@@]2(C)CC1 | > 1500 µM | > 1500 µM | > 1500 µM |  | 
22 | CCC(CC)C(=O)O[C@@H](C[C@@H](C)C1=C2C[C@H](OC(=O)C(CC)CC)[C@H]3[C@@]4(C)CCC(=O)C(C)(C)[C@@H]4CC[C@]3(C)[C@@]2(C)CC1)[C@@H](OC(=O)C(CC)CC)C(C)(C)O | > 1100 µM | > 1100 µM | > 1100 µM |  | 
23 | C[C@H](C[C@H](OC(=O)C1CCCCC1)[C@@H](OC(=O)C1CCCCC1)C(C)(C)O)C1=C2C[C@H](OC(=O)C3CCCCC3)[C@H]3[C@@]4(C)CCC(=O)C(C)(C)[C@@H]4CC[C@]3(C)[C@@]2(C)CC1 | > 800 µM | > 800 µM | > 800 µM |  | 
24 | C[C@H](C[C@H](OC(=O)CCC1CCCCC1)[C@@H](OC(=O)CCC1CCCCC1)C(C)(C)O)C1=C2C[C@H](OC(=O)CCC3CCCCC3)[C@H]3[C@@]4(C)CCC(=O)C(C)(C)[C@@H]4CC[C@]3(C)[C@@]2(C)CC1 | > 810 µM | > 810 µM | > 810 µM |  | 
25 | C[C@H](C[C@H](OC(=O)C1CC1)[C@@H](OC(=O)C1CC1)C(C)(C)O)C1=C2C[C@H](OC(=O)C3CC3)[C@H]3[C@@]4(C)CCC(=O)C(C)(C)[C@@H]4CC[C@]3(C)[C@@]2(C)CC1 | > 1000 µM | > 1000 µM | > 1000 µM |  | 
26 | C[C@H](C[C@H](OC(=O)c1ccc(Br)cc1)[C@@H](OC(=O)c1ccc(Br)cc1)C(C)(C)O)C1=C2C[C@H](OC(=O)c3ccc(Br)cc3)[C@H]3[C@@]4(C)CCC(=O)C(C)(C)[C@@H]4CC[C@]3(C)[C@@]2(C)CC1 | > 650 µM | > 650 µM | 650 µM | <1 | <1
27 | C[C@H](C[C@H](OC(=O)C1CCCC1)[C@@H](OC(=O)C1CCCC1)C(C)(C)O)C1=C2C[C@H](OC(=O)C3CCCC3)[C@H]3[C@@]4(C)CCC(=O)C(C)(C)[C@@H]4CC[C@]3(C)[C@@]2(C)CC1 | > 1100 µM | > 1100 µM | > 1100 µM |  | 
28 | C[C@H](C[C@H](OC(=O)CCOc1ccccc1)[C@@H](OC(=O)CCOc1ccccc1)C(C)(C)O)C1=C2C[C@H](OC(=O)CCOc3ccccc3)[C@H]3[C@@]4(C)CCC(=O)C(C)(C)[C@@H]4CC[C@]3(C)[C@@]2(C)CC1 | > 950 µM | > 950 µM | > 950 µM |  | 
